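Method: 48-hour compound exposure of cells in 96-well plates, five concentrations, linear interpolation of endpoints. TGI marks complete inhibition of growth.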
Assays:
Assay in all cases: NCI tumour cell line growth inhibition, 48 h
[1] = system: KM12 colon
[2] = system: HCC-2998 colon
[3] = system: HOP-92 NSCLC
[4] = system: SNB-75 CNS
[5] = system: CCRF-CEM leukemia
[6] = system: SR leukemia
[7] = system: OVCAR-5 ovarian
[8] = system: SK-MEL-5 melanoma
[9] = system: NCI-H23 lung
[10] = system: UO-31 renal
[11] = system: NCI-H226 lung
[12] = system: M14 melanoma
[13] = system: HCT-15 colon
[14] = system: UACC-62 melanoma
[15] = system: SF-295 CNS
[16] = system: MOLT-4 leukemia
[17] = system: OVCAR-4 ovarian
[18] = system: NCI/ADR-RES ovarian
[19] = system: MDA-MB-435

`CN(C)CCC[N+]1=Nc2cccc3cccc(c23)N1` was tested, and the TGI [1] was greater than 100 µM, the TGI [2] was greater than 100 µM and the TGI [3] was greater than 100 µM. It also gave a TGI [4] greater than 100 µM, a TGI [5] of 80.8 µM and a TGI [6] of 35.5 µM. It also gave a TGI [7] greater than 100 µM, a TGI [8] of 34.2 µM and a TGI [9] greater than 100 µM. It also gave a TGI [10] greater than 100 µM, a TGI [11] greater than 100 µM and a TGI [12] of 39 µM. The TGI [13] was greater than 100 µM, the TGI [14] was greater than 100 µM and the TGI [15] was greater than 100 µM. It also gave a TGI [16] of 62.4 µM and a TGI [17] greater than 100 µM.

`COC(=O)C(CCC1(C)OCCO1)=[N+]=[N-]` gave a TGI [1] greater than 100 µM, a TGI [2] greater than 100 µM and a TGI [4] greater than 100 µM. It also gave a TGI [5] greater than 100 µM, a TGI [6] greater than 100 µM and a TGI [7] greater than 100 µM. The TGI [8] was greater than 100 µM, the TGI [9] was greater than 100 µM and the TGI [10] was greater than 100 µM. For the same compound, the TGI [11] was greater than 100 µM, the TGI [12] was greater than 100 µM and the TGI [13] was greater than 100 µM. It also gave a TGI [15] greater than 100 µM, a TGI [16] greater than 100 µM and a TGI [17] greater than 100 µM.

`N#COc1ccc(Oc2ccc(OC#N)cc2)cc1` was tested, and the TGI [1] was greater than 100 µM, the TGI [2] was greater than 100 µM and the TGI [3] was greater than 100 µM. It also gave a TGI [4] greater than 100 µM, a TGI [5] of 50.4 µM and a TGI [6] of 50.1 µM. The TGI [7] was greater than 100 µM, the TGI [8] was greater than 100 µM and the TGI [9] was greater than 100 µM. It also gave a TGI [10] greater than 100 µM, a TGI [11] greater than 100 µM and a TGI [12] greater than 100 µM. The TGI [13] was greater than 100 µM, the TGI [14] was greater than 100 µM and the TGI [15] was greater than 100 µM. The TGI [16] was greater than 100 µM and the TGI [17] was greater than 100 µM.

`CCCCCCCCCCCCCS(=O)(=O)NCC(N)=O` was tested, and the TGI [1] was greater than 100 µM, the TGI [2] was greater than 100 µM and the TGI [3] was greater than 100 µM. The TGI [4] was 74.7 µM, the TGI [5] was greater than 100 µM and the TGI [7] was greater than 100 µM. It also gave a TGI [8] greater than 100 µM, a TGI [9] greater than 100 µM and a TGI [10] greater than 100 µM. The TGI [11] was greater than 100 µM, the TGI [12] was greater than 100 µM and the TGI [13] was greater than 100 µM. For the same compound, the TGI [14] was greater than 100 µM, the TGI [15] was greater than 100 µM and the TGI [17] was greater than 100 µM.

`Cc1ccc(S(=O)(=O)N(CCNC(=O)c2cccc(O)c2O)c2cc3c4c(c2)Oc2cccc5c2C4(C)c2c(cccc2O3)O5)cc1` was tested, and the TGI [1] was greater than 100 µM, the TGI [2] was greater than 100 µM and the TGI [4] was greater than 100 µM. The TGI [6] was greater than 100 µM, the TGI [7] was greater than 100 µM and the TGI [8] was greater than 100 µM. It also gave a TGI [9] greater than 100 µM, a TGI [18] of 58 µM and a TGI [10] greater than 100 µM. For the same compound, the TGI [11] was 65.8 µM, the TGI [12] was greater than 100 µM and the TGI [13] was greater than 100 µM. For the same compound, the TGI [19] was greater than 100 µM, the TGI [14] was greater than 100 µM and the TGI [15] was greater than 100 µM. For the same compound, the TGI [16] was greater than 100 µM and the TGI [17] was greater than 100 µM.

`COc1ccc(C2=Nc3ccccc3N=C(SC)C2)cc1` showed a TGI [1] greater than 100 µM, a TGI [2] of 74.4 µM and a TGI [3] of 61.9 µM. For the same compound, the TGI [4] was greater than 100 µM, the TGI [5] was 42 µM and the TGI [6] was greater than 100 µM. It also gave a TGI [7] greater than 100 µM, a TGI [8] greater than 100 µM and a TGI [9] greater than 100 µM. The TGI [10] was greater than 100 µM, the TGI [11] was greater than 100 µM and the TGI [12] was greater than 100 µM. The TGI [13] was greater than 100 µM, the TGI [14] was greater than 100 µM and the TGI [15] was greater than 100 µM. For the same compound, the TGI [16] was greater than 100 µM and the TGI [17] was greater than 100 µM.

Work on `CC12CCc3ccccc3C1=NNC(=O)C2` (configuration not stated) yielded a TGI [1] greater than 100 µM, a TGI [2] greater than 100 µM and a TGI [3] greater than 100 µM. It also gave a TGI [4] greater than 100 µM, a TGI [5] greater than 100 µM and a TGI [7] greater than 100 µM. The TGI [8] was greater than 100 µM, the TGI [9] was greater than 100 µM and the TGI [10] was greater than 100 µM. For the same compound, the TGI [11] was greater than 100 µM, the TGI [12] was greater than 100 µM and the TGI [13] was greater than 100 µM. The TGI [15] was greater than 100 µM, the TGI [16] was greater than 100 µM and the TGI [17] was greater than 100 µM.

Work on `CC(=O)OCC1OC(n2c(=S)n(-c3ccccc3)c(=O)c3cc(Br)ccc32)C(OC(C)=O)C1OC(C)=O` (configuration not stated) yielded a TGI [1] greater than 100 µM, a TGI [2] greater than 100 µM and a TGI [3] greater than 100 µM. It also gave a TGI [4] greater than 100 µM, a TGI [7] greater than 100 µM and a TGI [8] greater than 100 µM. For the same compound, the TGI [9] was greater than 100 µM, the TGI [10] was greater than 100 µM and the TGI [11] was greater than 100 µM. It also gave a TGI [12] greater than 100 µM, a TGI [13] greater than 100 µM and a TGI [14] greater than 100 µM. For the same compound, the TGI [15] was greater than 100 µM, the TGI [16] was greater than 100 µM and the TGI [17] was greater than 100 µM.

In the case of `O=C1Nc2ccc(Br)cc2/C1=N/N1C(=O)C(=O)N(C2CCCCC2)C1=S`, the TGI [1] is reported as 14.6 µM, the TGI [2] is reported as 13.5 µM and the TGI [3] is reported as 53.7 µM. The TGI [5] was 16.6 µM, the TGI [6] was 10.6 µM and the TGI [7] was 28.9 µM. For the same compound, the TGI [8] was 16.7 µM, the TGI [9] was 20.3 µM and the TGI [18] was 13.5 µM. For the same compound, the TGI [10] was 4.79 µM, the TGI [11] was 23.5 µM and the TGI [12] was 14.6 µM. It also gave a TGI [13] of 10.4 µM, a TGI [19] of 8.16 µM and a TGI [14] of 12.2 µM. It also gave a TGI [15] of 15.4 µM, a TGI [16] of 16.5 µM and a TGI [17] of 22.6 µM.

With `CCO/C(O)=c1/s/c(=C(\C#N)c2nc3ccccc3[nH]2)n(-c2ccccc2)c1=N` the TGI [3] was greater than 100 µM, the TGI [4] was greater than 100 µM and the TGI [5] was greater than 100 µM. For the same compound, the TGI [7] was greater than 100 µM, the TGI [8] was greater than 100 µM and the TGI [9] was greater than 100 µM. For the same compound, the TGI [10] was greater than 100 µM, the TGI [11] was greater than 100 µM and the TGI [12] was greater than 100 µM. The TGI [13] was greater than 100 µM, the TGI [14] was greater than 100 µM and the TGI [15] was greater than 100 µM. It also gave a TGI [16] greater than 100 µM and a TGI [17] greater than 100 µM.

In the case of `O=C1Nc2ccc(Cl)c(I)c2C1=O`, the TGI [1] is reported as 76.3 µM, the TGI [2] is reported as 27.7 µM and the TGI [4] is reported as 50.8 µM. The TGI [5] was 57.4 µM, the TGI [6] was 50.7 µM and the TGI [7] was 34.1 µM. It also gave a TGI [8] of 34.9 µM, a TGI [9] of 37.6 µM and a TGI [10] of 38.8 µM. The TGI [11] was 20 µM, the TGI [12] was 31.1 µM and the TGI [13] was 43.7 µM. For the same compound, the TGI [14] was 34.8 µM, the TGI [15] was 32.3 µM and the TGI [16] was 54.6 µM. For the same compound, the TGI [17] was 32 µM.

`O=C1CN(c2cccc(C(F)(F)F)c2)C(=O)CN1CCN1CC(=O)N(c2cccc(C(F)(F)F)c2)CC1=O` gave a TGI [1] greater than 100 µM, a TGI [2] greater than 100 µM and a TGI [4] greater than 100 µM. The TGI [5] was greater than 100 µM, the TGI [6] was greater than 100 µM and the TGI [7] was greater than 100 µM. For the same compound, the TGI [8] was greater than 100 µM, the TGI [18] was greater than 100 µM and the TGI [10] was greater than 100 µM. It also gave a TGI [12] greater than 100 µM, a TGI [13] greater than 100 µM and a TGI [19] greater than 100 µM. The TGI [15] was greater than 100 µM, the TGI [16] was greater than 100 µM and the TGI [17] was greater than 100 µM.

Work on `CC#COS(=O)(=O)c1ccc(C)cc1` yielded a TGI [1] greater than 100 µM, a TGI [2] greater than 100 µM and a TGI [5] greater than 100 µM. It also gave a TGI [6] greater than 100 µM, a TGI [7] greater than 100 µM and a TGI [8] greater than 100 µM. It also gave a TGI [9] greater than 100 µM, a TGI [10] greater than 100 µM and a TGI [11] greater than 100 µM. It also gave a TGI [12] greater than 100 µM, a TGI [13] greater than 100 µM and a TGI [14] greater than 100 µM. For the same compound, the TGI [15] was greater than 100 µM, the TGI [16] was greater than 100 µM and the TGI [17] was greater than 100 µM.

`COc1ccc([C@H]2CC3C(=O)N(c4ccc(OC)cc4)C(=O)C3c3[nH]c4ccccc4c32)cc1` (some centres not stated) showed a TGI [1] greater than 100 µM, a TGI [2] greater than 100 µM and a TGI [3] of 78.4 µM. For the same compound, the TGI [4] was 83.7 µM, the TGI [5] was greater than 100 µM and the TGI [7] was greater than 100 µM. It also gave a TGI [8] greater than 100 µM, a TGI [9] greater than 100 µM and a TGI [10] greater than 100 µM. The TGI [11] was greater than 100 µM, the TGI [12] was greater than 100 µM and the TGI [13] was greater than 100 µM. The TGI [14] was greater than 100 µM, the TGI [15] was 78.3 µM and the TGI [16] was greater than 100 µM. For the same compound, the TGI [17] was greater than 100 µM.
